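How tested: cells in 96-well plates exposed to compound for 48 hours at five concentrations. GI50 marks 50% less growth.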 The source made the active and inactive calls. Cut-off read from the data, not from the text of the source: active = GI50 up to about 1.1 µM and inactive = higher.
Experiments:
Test in all cases: NCI anticancer screen, dose series, 48 h
DLD-1 = test system: DLD-1
DMS-114 = test system: DMS-114
HOP-18 = test system: HOP-18
KM-20L2 = test system: KM-20L2
LXFL 529 = test system: LXFL 529
RXF 631 = test system: RXF 631
SNB-78 = test system: SNB-78
XF498 = test system: XF498
T47D = test system: T47D

Measured: GI50

CCOC(=O)C(/C(=N/NC(=O)OC)C(=O)Nc1ccc(C(C)=O)cc1)c1cnc2ccccc2n1 (stereo not drawn)
inactive: DLD-1 > 100 µM | DMS-114 > 100 µM | HOP-18 > 100 µM | KM-20L2 > 100 µM | LXFL 529 > 100 µM | RXF 631 > 100 µM | SNB-78 > 100 µM | XF498 > 100 µM

COc1ccc(/C=N\O[Si](C)(C)C(C)(C)C)cc1O[Si](C)(C)C(C)(C)C
inactive: DLD-1 17.9 µM | DMS-114 18.5 µM | HOP-18 15.3 µM | KM-20L2 28.8 µM | LXFL 529 16.1 µM | RXF 631 21.1 µM | SNB-78 19.3 µM | XF498 18.4 µM

CC(=O)NNc1nc(C)c(C(/C=C/c2ccc(Cl)cc2)=N/NC(=S)NN)s1
inactive: DLD-1 > 100 µM | DMS-114 > 100 µM | HOP-18 > 100 µM | KM-20L2 > 100 µM | LXFL 529 > 100 µM | RXF 631 > 100 µM | SNB-78 > 100 µM | XF498 > 100 µM

COC(=O)/C(=N\NC(N)=S)C(C(=O)OC)C(=O)C(=O)Nc1ccc(C)cc1 (stereo not drawn)
inactive: DLD-1 > 100 µM | DMS-114 > 100 µM | HOP-18 > 100 µM | KM-20L2 > 100 µM | LXFL 529 > 100 µM | RXF 631 > 100 µM | SNB-78 > 100 µM | XF498 > 100 µM

O=c1c2cccc3cccc(c4n1CCCN=4)c32
inactive: DLD-1 > 100 µM | DMS-114 > 100 µM | HOP-18 > 100 µM | KM-20L2 > 100 µM | LXFL 529 > 100 µM | RXF 631 > 100 µM | SNB-78 > 100 µM | XF498 > 100 µM

C=C(C)[C@@H]1CC=C(CO)CC1 [PERILLYL ALCOHOL]
inactive: DLD-1 220 µM | DMS-114 124 µM | KM-20L2 265 µM | LXFL 529 668 µM | RXF 631 565 µM | SNB-78 200 µM | T47D > 10 µM | XF498 123 µM

From ChEMBL document CHEMBL1201862, “PubChem BioAssay data set” (2004)
